According to PubChem BioAssay AID330 (DTP/NCI, 2004):
Values joined by “and” are separate entries in the source; they are usually repeats but may differ in a detail not shown here. Equal values may be shown once. Toxic doses and inconclusive results are not listed. Peptide text beside a SMILES is read from it.

Tested on: P388 leukemia ip, CD2F1 mice, survival T/C
Experiment: NCI In Vivo Anticancer Drug Screen. Data for tumor model P388 Leukemia (intraperitoneal) in CD2F1 (CDF1) mice
Settings: endpoint: median survival time, higher = longer survival
Summary of the method: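 Mice carrying the transplanted tumor received test compound or vehicle. Survival was recorded in each group, and the value is the treated-group measurement divided by that of the vehicle-treated control group.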

[1] = dose: 25.0 mg/kg/injection, schedule: Q01DX009 (ip), vehicle: Klucel (hydroxypropylcellulose) (HPC)
[2] = dose: 50.0 mg/kg/injection, schedule: Q01DX009 (ip), vehicle: Klucel (hydroxypropylcellulose) (HPC)
[3] = dose: 100.0 mg/kg/injection, schedule: Q01DX009 (ip), vehicle: Klucel (hydroxypropylcellulose) (HPC)
[4] = dose: 100.0 mg/kg/injection, schedule: Q01DX009 (ip), vehicle: suspension in saline
[5] = dose: 50.0 mg/kg/injection, schedule: Q01DX009 (ip), vehicle: saline
[6] = dose: 100.0 mg/kg/injection, schedule: Q01DX009 (ip), vehicle: saline
[7] = dose: 200.0 mg/kg/injection, schedule: Q01DX009 (ip), vehicle: saline
[8] = dose: 12.5 mg/kg/injection, schedule: Q01DX005 (ip), vehicle: Klucel (hydroxypropylcellulose) (HPC)
[9] = dose: 25.0 mg/kg/injection, schedule: Q01DX005 (ip), vehicle: Klucel (hydroxypropylcellulose) (HPC)
[10] = dose: 50.0 mg/kg/injection, schedule: Q01DX005 (ip), vehicle: Klucel (hydroxypropylcellulose) (HPC)
[11] = dose: 100.0 mg/kg/injection, schedule: Q01DX005 (ip), vehicle: Klucel (hydroxypropylcellulose) (HPC)
[12] = dose: 60.0 mg/kg/injection, schedule: Q01DX005 (ip), vehicle: saline with Tween-80
[13] = dose: 120.0 mg/kg/injection, schedule: Q01DX005 (ip), vehicle: saline with Tween-80
[14] = dose: 240.0 mg/kg/injection, schedule: Q01DX005 (ip), vehicle: saline with Tween-80
[15] = dose: 25.0 mg/kg/injection, schedule: Q01DX009 (ip), vehicle: saline
[16] = dose: 50.0 mg/kg/injection, schedule: Q01DX009 (ip), vehicle: saline with Tween-80
[17] = dose: 100.0 mg/kg/injection, schedule: Q01DX009 (ip), vehicle: saline with Tween-80
[18] = dose: 200.0 mg/kg/injection, schedule: Q01DX009 (ip), vehicle: saline with Tween-80
[19] = dose: 50.0 mg/kg/injection, schedule: Q01DX005 (ip), vehicle: saline
[20] = dose: 100.0 mg/kg/injection, schedule: Q01DX005 (ip), vehicle: saline
[21] = dose: 200.0 mg/kg/injection, schedule: Q01DX005 (ip), vehicle: saline
[22] = dose: 200.0 mg/kg/injection, schedule: Q01DX005 (ip), vehicle: Klucel (hydroxypropylcellulose) (HPC)

In the case of `Cc1ccc(NC(=S)SCc2ccc3c(c2)OCO3)cc1Br`, the T/C (dose: 12.5 mg/kg/injection, schedule: Q01DX009 (ip), vehicle: Klucel (hydroxypropylcellulose) (HPC)) is reported as 122 % of control, the T/C [1] is reported as 102 % of control and the T/C [2] is reported as 120 % of control. For the same compound, the T/C (dose: 50.0 mg/kg/injection, schedule: Q01DX009 (ip), vehicle: suspension in saline) was 104 % of control, the T/C [3] was 115 % of control and the T/C [4] was 111 % of control. The T/C (dose: 200.0 mg/kg/injection, schedule: Q01DX009 (ip), vehicle: Klucel (hydroxypropylcellulose) (HPC)) was 116 % of control and the T/C (dose: 200.0 mg/kg/injection, schedule: Q01DX009 (ip), vehicle: suspension in saline) was 104 % of control.

For `CCC[CH2][Sn]([CH3])([CH3])[CH2]CCN(C)C`, the T/C [5] was 98 % of control, the T/C [6] was 98 % of control and the T/C [7] was 88 % of control.

`N/C(=N\OC(=O)Nc1ccc(CSc2ccc(Cl)cc2)o1)c1ccccn1` was tested, and the T/C [8] was 106 % of control and 109 % of control, the T/C [9] was 107 % of control and 110 % of control and the T/C [10] was 110 % of control and 114 % of control and 120 % of control. For the same compound, the T/C [11] was 109 % of control and 111 % of control.

With `CC1=NN(c2ccccc2)C(=O)/C1=C\c1ccc([N+](=O)[O-])cc1` the T/C [12] was 104 % of control, the T/C [13] was 101 % of control and the T/C [14] was 103 % of control.

With `Fc1cccc(NC(=S)SCc2ccc(Cl)cc2)c1` the T/C [15] was 102 % of control, the T/C [5] was 105 % of control and the T/C [6] was 105 % of control. The T/C [4] was 103 % of control.

In the case of `Cc1cc2c(cc1C)NC1=C(N2)OC(c2ccc(Cl)cc2)C1=O` (configuration not stated), the T/C [12] is reported as 92 % of control, the T/C [13] is reported as 89 % of control and the T/C [14] is reported as 92 % of control.

For `CC1C(=O)C23CCC4C5(C)CCCC4(CN4CCOC45)C2CCC1C3` (configuration not stated), the T/C (dose: 1.0 mg/kg/injection, schedule: Q01DX009 (ip), vehicle: Klucel (hydroxypropylcellulose) (HPC)) was 97 % of control, the T/C (dose: 2.0 mg/kg/injection, schedule: Q01DX009 (ip), vehicle: Klucel (hydroxypropylcellulose) (HPC)) was 95 % of control and the T/C (dose: 4.0 mg/kg/injection, schedule: Q01DX009 (ip), vehicle: Klucel (hydroxypropylcellulose) (HPC)) was 98 % of control. The T/C (dose: 8.0 mg/kg/injection, schedule: Q01DX009 (ip), vehicle: Klucel (hydroxypropylcellulose) (HPC)) was 103 % of control.

For `CC1=CC2ON=C(c3c(C)cc(C)cc3C)N2N(C(=O)c2ccccc2)C=C1` (configuration not stated), the T/C [5] was 102 % of control, the T/C [6] was 93 % of control and the T/C [7] was 93 % of control.

`O=[N+]([O-])c1cnccc1Nc1ccncc1` was tested, and the T/C (dose: 100.0 mg/kg/injection, schedule: Q01DX001 (ip), vehicle: saline with Tween-80) was 100 % of control and the T/C (dose: 200.0 mg/kg/injection, schedule: Q01DX001 (ip), vehicle: saline with Tween-80) was 100 % of control.

With `O=C(NN(c1ccccc1)c1ccccc1)c1ccccc1[N+](=O)[O-]` the T/C [16] was 93 % of control, the T/C [17] was 104 % of control and the T/C [18] was 93 % of control.

In the case of `O=S(=O)(Nc1nccs1)c1ccc(Nc2c3ccccc3nc3ncccc23)cc1`, the T/C [12] is reported as 93 % of control and the T/C [13] is reported as 89 % of control.

`CC(C)C(C(=O)O)N(C)C(=O)c1cnc2ccccc2n1` (configuration not stated) was tested, and the T/C [12] was 104 % of control, the T/C [13] was 97 % of control and the T/C [14] was 99 % of control.

In the case of `NC(=O)c1cc([N+](=O)[O-])cc([N+](=O)[O-])c1`, the T/C [1] is reported as 103 % of control, the T/C [2] is reported as 88 % of control and the T/C [3] is reported as 91 % of control.

In the case of `NCCCCC(NC(=O)C(Cc1cnc[nH]1)NC(=O)CN)C(=O)O` (stereo not drawn) (H-Gly-His-Lys-OH; configuration not given here), the T/C [19] is reported as 109 % of control, the T/C [20] is reported as 104 % of control and the T/C [21] is reported as 100 % of control.

`COC(=O)CCSC(=S)NCc1ccccc1` was tested, and the T/C [10] was 98 % of control, the T/C [11] was 96 % of control and the T/C [22] was 102 % of control.

For `OCCCN1CNC(=S)NC1`, the T/C (dose: 12.5 mg/kg/injection, schedule: Q01DX009 (ip), vehicle: saline) was 106 % of control and 111 % of control, the T/C [15] was 100 % of control and 105 % of control and the T/C [5] was 100 % of control and 97 % of control. For the same compound, the T/C [6] was 99 % of control and 102 % of control.

In the case of `O=C(/C=C/c1ccc2c(c1)OCO2)C1CC1`, the T/C [16] is reported as 92 % of control, the T/C [17] is reported as 92 % of control and the T/C [18] is reported as 96 % of control.

`COC1=CC(c2ccccc2)=N/C1=C/c1ccc[nH]1` was tested, and the T/C (dose: 50.0 mg/kg/injection, schedule: Q01DX001 (ip), vehicle: Klucel (hydroxypropylcellulose) (HPC)) was 95 % of control, the T/C (dose: 100.0 mg/kg/injection, schedule: Q01DX001 (ip), vehicle: Klucel (hydroxypropylcellulose) (HPC)) was 100 % of control and the T/C (dose: 200.0 mg/kg/injection, schedule: Q01DX001 (ip), vehicle: Klucel (hydroxypropylcellulose) (HPC)) was 98 % of control.

For `C[CH2][Sn]([CH2]C)[CH2]C.C[CH2][Sn]([CH2]C)[CH2]C`, the T/C [8] was 105 % of control and 97 % of control, the T/C [9] was 101 % of control and 114 % of control and the T/C [10] was 110 % of control and 97 % of control. For the same compound, the T/C [11] was 113 % of control.

`COC(=O)[C@@]12OC[C@@]34[C@@H](CC5=C(C)C(=O)C(O)=C[C@]5(C)[C@H]3[C@@H](O)[C@@H]1O)OC(=O)[C@H](OC(=O)/C=C(\C)C(C)(C)OC(C)=O)[C@@H]24` was tested, and the T/C (dose: 0.25 mg/kg/injection, schedule: Q01DX009 (ip), vehicle: saline + alcohol) was 106 % of control, the T/C (dose: 0.5 mg/kg/injection, schedule: Q01DX009 (ip), vehicle: saline + alcohol) was 110 % of control and 123 % of control and the T/C (dose: 4.0 mg/kg/injection, schedule: Q01DX009 (ip), vehicle: saline + alcohol) was 157 % of control and 159 % of control. For the same compound, the T/C (dose: 8.0 mg/kg/injection, schedule: Q01DX009 (ip), vehicle: saline + alcohol) was 175 % of control.

With `COC(=O)CSSCc1ccccc1` the T/C (dose: 50.0 mg/kg/injection, schedule: Q01DX005 (ip), vehicle: suspension in saline) was 100 % of control, the T/C (dose: 100.0 mg/kg/injection, schedule: Q01DX005 (ip), vehicle: suspension in saline) was 107 % of control and the T/C (dose: 200.0 mg/kg/injection, schedule: Q01DX005 (ip), vehicle: suspension in saline) was 107 % of control.

With `CCOC(=O)c1ccc(NC(=O)Nc2nccs2)cc1` the T/C [18] was 162 % of control and the T/C (dose: 400.0 mg/kg/injection, schedule: Q01DX009 (ip), vehicle: saline with Tween-80) was 92 % of control.

For `NNC(=O)C(N)Cc1ccc(O)cc1` (configuration not stated), the T/C [19] was 100 % of control, the T/C [20] was 103 % of control and the T/C [21] was 115 % of control.

For `CCOC(=O)Nc1cc2c(c(N)n1)N=C(c1ccc(C)c(C)c1)CN2`, the T/C (dose: 3.12 mg/kg/injection, schedule: Q01DX005 (ip), vehicle: saline with Tween-80) was 122 % of control and the T/C (dose: 12.5 mg/kg/injection, schedule: Q01DX005 (ip), vehicle: saline with Tween-80) was 88 % of control.

In the case of `O=C(O)CNC(=O)CNc1nc(Cl)nc(NCC(=O)NCC(=O)O)n1`, the T/C (dose: 60.0 mg/kg/injection, schedule: Q01DX005 (ip), vehicle: Klucel (hydroxypropylcellulose) (HPC)) is reported as 97 % of control, the T/C (dose: 120.0 mg/kg/injection, schedule: Q01DX005 (ip), vehicle: Klucel (hydroxypropylcellulose) (HPC)) is reported as 96 % of control and the T/C (dose: 240.0 mg/kg/injection, schedule: Q01DX005 (ip), vehicle: Klucel (hydroxypropylcellulose) (HPC)) is reported as 93 % of control.

For `C=CCC(C(=O)OC)c1cc(OC)c(OC)c(OC)c1` (configuration not stated), the T/C (dose: 1.25 mg/kg/injection, schedule: Q01DX009 (ip), vehicle: saline) was 97 % of control, the T/C (dose: 2.5 mg/kg/injection, schedule: Q01DX009 (ip), vehicle: saline) was 100 % of control and the T/C (dose: 5.0 mg/kg/injection, schedule: Q01DX009 (ip), vehicle: saline) was 115 % of control.

With `Clc1ccc(Nc2ncnc3oc(-c4ccccc4)c(-c4ccccc4)c23)cc1` the T/C [12] was 100 % of control, the T/C [13] was 97 % of control and the T/C [14] was 90 % of control.

`CCSC1(SCC)C(=O)OC2=C(CCCCC2)C1N(C)c1ccccc1` (configuration not stated) was tested, and the T/C (dose: 12.5 mg/kg/injection, schedule: Q01DX009 (ip), vehicle: saline with Tween-80) was 93 % of control, the T/C (dose: 25.0 mg/kg/injection, schedule: Q01DX009 (ip), vehicle: saline with Tween-80) was 99 % of control and the T/C [16] was 99 % of control.

`CCCCCCC(=O)/C=C/c1ccc(F)cc1` was tested, and the T/C (dose: 50.0 mg/kg/injection, schedule: Q01DX005 (ip), vehicle: saline with Tween-80) was 101 % of control, the T/C (dose: 100.0 mg/kg/injection, schedule: Q01DX005 (ip), vehicle: saline with Tween-80) was 106 % of control and the T/C (dose: 200.0 mg/kg/injection, schedule: Q01DX005 (ip), vehicle: saline with Tween-80) was 100 % of control.

With `C=C1CC2(CCCC3(C2)OCCO3)OC1=O` (configuration not stated) the T/C [10] was 95 % of control, the T/C [11] was 95 % of control and the T/C [22] was 106 % of control.
